SMILES strings stand for the structures. Several values for one entry are separate records, joined by “and”; a condition that tells them apart may be missing. Equal values may be shown once. Marks after values point to notes of the source that are not given here.

This is an account of results in US20200030388A1, “COMPOSITIONS FOR MODIFYING GUT MICROBIOTA” (priority 2017, published 2020).

In data set [1] the test system is HFD-Induced Obese Mice (C57BL/6). As to conditions: mouse, in vivo.
Experimental: (§1) Four-week-old, male C57BL/6 mice were purchased from the BioLASCO Experimental Animal Center (Taiwan Co., Ltd., Taipei, Taiwan) and housed in a controlled atmosphere (25±1° C. at 50% relative humidity) with a 12 h light/12 h dark cycle. After 1 week of acclimation, animals were randomly distributed into 6 groups as follows: normal diet (ND, 15% energy from fat), high-fat diet (HFD, 50% energy from lard-based fat), and HFD supplemented with 0.01% garcinol (GAR group), 0.025% Forskolin (FOR group), 0.005% GAR+0.025% FOR (LMIX group), and 0.01% Gar+0.025% For (HMIX group) for 12 weeks. […] Animals had free access to food and water. Food consumption was monitored daily and the body weight was recorded weekly. At the end of the experiments, all animals were sacrificed by CO2 asphyxiation. Blood samples were collected from the heart for biochemical analysis. The liver, spleen, kidney, fat pads (perigonadal, retroperitoneal, and mesenteric fat), and fresh fecal pellets were immediately removed and stored at −80° C. until further analysis.
(§2) Liver and the perigonadal adipose tissue were dissected and fixed in 10% buffered formalin for at least 24 h, dehydrated with a sequence of ethanol solutions, and processed for embedding in paraffin. Sections of 4 μm in thickness were cut, deparaffinized, rehydrated, stained with hematoxylin and eosin (H&E), and subjected to photo microscopic observation. Adipocyte size was measured at 100× magnification and determined by Image J software (U. S. National Institutes of Health, Bethesda, Md., USA).
Data set [2] has the same test system. In words: GAR, FOR, LMIX, HMIX in HFD-induced obese mice, 12 weeks (Example 4).
Experimental: as §1, §2
For data set [3], the system named is Gut Microbiota in HFD-Fed Mice. In words: Gut microbiota classification by next generation sequencing (Example 4). In kind it is in vivo, mouse. How it is done: Total DNA was extracted from fresh fecal samples by using the innuPREP Stool DNA kit (Analytik Jena AG, Jena, Germany) according to the manufacturer's instructions. According to the concentration, DNA was diluted to 1 ng μ L^−1 using sterile water. 6SrRNA/18SrRNA/ITS genes of distinct region (16SV4/16SV3/16SV3-V4/16SV4-V5, 18S V4/18S V9, ITS1/ITS2, Arc V4) were amplified using a specific primer (e.g. 16SV4: 515F-806R, 18S V4: 528F-706R, and 18S V9: 1380F-1510R) with a barcode. All PCR reactions were carried out using a Phusion® High-Fidelity PCR master mix (New England Biolabs, Ipswich, Mass., USA). The PCR products were mixed in ratios of equal density. Then, the mixed PCR products were purified using a Qiagen gel extraction kit (Qiagen, Hilden, Germany). Sequencing libraries were generated using the TruSeq® DNA PCR-free sample preparation kit (Illumina, San Diego, Calif., USA) following the manufacturer's recommendations, and index codes were added. The library quality was assessed using the Qubit@ 2.0 Fluorometer (Thermo Scientific) and Agilent Bioanalyzer 2100 system. Lastly, the library was sequenced using an Illumina HiSeq 2500 platform, and 250 bp paired-end reads were generated. The classification was based on the Greengenes database (https://greengenes.lbl.gov/).

The mark [4] stands for this setting: 0.01% GAR, 0.025% FOR, LMIX, HMIX.

`C=C[C@@]1(C)CC(=O)[C@]2(O)[C@@]3(C)[C@@H](O)CCC(C)(C)[C@@H]3[C@H](O)[C@H](OC(C)=O)[C@@]2(C)O1` [FOR, Forskolin, reference compound]: in data set [1], the Kidney is recorded as 0.4 ± 0.02^a g and the Spleen was 0.06 ± 0.01^a g. Moreover, in data set [2] (setting [4]), the Final weight was 30.5 g and 30.5 ± 2.6^c g; the Weight gain is recorded as 9.1 ± 1.8^c g. The Liver in data set [2] (organ weight) is 1.5 ± 0.2^bc g. Also, in data set [3] (12 weeks (HFD group 43.0%)), the “abundance of Firmicutes” value was 33.5%. Also, the “abundance of Bacteroidetes” value in data set [3] (12 weeks (HFD group 50.2%)) is listed as 62.2%. Further, the “OTUs difference between ND and HFD groups (Venn diagram)” value in data set [3] (12 weeks, FIG. 23A) was determined as 34 OTUs.
